Test results reported in paper PMC6838110 (Nature Communications, 2019).

Legend:
OV2022 ovarian PDX = test: PDX efficacy study; format: in vivo, mice; conditions: olaparib single agent
Method: (§1) Immunocompromised SCID (C.B-17/IcrHan®Hsd-Prkdc^scid) or Hsd:Athymic Nude-Foxn1^nu female mice (Envigo) were used for tumour implantation. […] When dosed twice daily, the time between the morning and evening doses was 8 h. Targeted irradiation of 2 Gy was delivered over 2 min daily over the first 5 days of treatment. Liposomal doxorubicin (Doxoves) was diluted in physiological saline and intravenously dosed at 2.5 or 5 mg kg^−1 once per week. Olaparib was formulated in 10% DMSO/30% Kleptose and orally dosed at 100 mg kg^−1 once daily. […] Statistical significance was evaluated using a one-tailed t-test. All in vivo studies complied with all relevant ethical regulations for animal testing and research, followed AstraZeneca’s global bioethics policy and received ethical approval from the AstraZeneca ethical committee. HBCx-17 PDX study was carried out at XenTech, France in accordance with French regulatory legislation concerning the protection of laboratory animals. CTG-703, CTG-0828 and CTG-0149 PDX studies were carried out at Champions Oncology, Inc., USA in accordance to the guidelines of the Institutional Animal Care and Use Committee (IACUC) of Champions Oncology and the USA regulatory legislation. CDX and OV2022 PDX studies were conducted in the UK in accordance with UK Home Office legislation, the Animal Scientific Procedures Act 1986 and the Home Office project licences 70/8839, 70/8894 and P0EC1FFDF. […]
(§2) SCID mice were surgically implanted subcutaneously with tumour fragments from donor mice. Tumours were measured (length x width) by bilateral Vernier calliper measurements and tumour volume calculated using Mousetrap software. Mice were randomized into […]
(§3) treatment groups when mean tumour volume reached ~0.2 cm 3. AZD7648 was formulated in 0.5% hydroxypropyl methylcellulose (HPMC)/0.1% Tween80 (HPMC/T) and orally dosed (4–100 mg/kg). When dosed twice daily (bid), the time between the morning and evening doses was 8 hours. Targeted irradiation of 2 Gy was delivered over 2 minutes daily over the first 5 days of treatment. Liposomal doxorubicin (Doxoves) was diluted in physiological saline and intravenously dosed at 2.5 or 5 mg/kg once per week. Olaparib was formulated in 10% DMSO/30% Kleptose and orally dosed at 100 mg/kg once daily.
(§4) HPMC/T. Tumour growth inhibition from start of treatment was assessed by co mparison of the mean change in tumour volume for the control and treated groups, using the Mousetrap application and represented as tumour growth inhibition (TGI). Statistical significance was evaluated using a one-tailed t-test. HBCx-17 PDX study was carried out at XenTech, France in accordance with French regulatory legislation concerning the protection of laboratory animals. CTG-703, CTG-0828 and CTG-0149 PDX studies were carried out at Champions Oncology, Inc., USA in accordance to the guidelines of the Institutional Animal Care and Use Committee (IACUC) of Champions Oncology and the USA regulatory legislation. CDX and OV2022 PDX studies were conducted in the UK in accordance with UK Home Office legislation, the Animal Scientific Procedures Act 1986, and AstraZeneca’s global bioethics policy. Experimental details are outlined in Home […]
(§5) Blood samples were taken via venipuncture of the tail vein. Whole blood was mixed 1: 5 with PBS and centrifuged at 1500g for 3 minutes at 4°C, and the plasma was extracted […]
(§6) was prepared using an appropriate dilution factor and compared against an 11-point standard calibration curve (1–10,000 nM) prepared in DMSO and spiked into bl ank plasma. Acetonitrile (100 µL) was added with the internal standard, followed by centrifugation at 3000 rpm for 10 minutes. Supernatant (50 µL) was then diluted in 300 µL water and analysed with ultra-performance liquid chromatography–tandem mass […]
(§7) Xenograft sample preparation
(§8) Animals were euthanized and tumour samples snap frozen in liquid nitrogen or fixed in formalin and paraffin embedded for subsequent analysis. Tumour pieces were lysed in […]

CTG-0828 NSCLC PDX = test: PDX efficacy study; format: in vivo, mice; conditions: olaparib single agent
Method: as §1, §2, §3, §4, §5, §6, §7, §8

CTG-0149 H&N PDX = test: PDX efficacy study; format: in vivo, mice; conditions: olaparib single agent
Method: as §1, §2, §3, §4, §5, §6, §7, §8

CTG-703 ovarian PDX = test: PDX efficacy study; format: in vivo, mice; conditions: olaparib single agent
Method: as §1, §2, §3, §4, §5, §6, §7, §8

FaDu ATM KO xenografts = test: Xenograft efficacy study with olaparib; format: in vivo, mice; conditions: continuous olaparib 100 mg kg−1 qd single agent
Method: Immunocompromised SCID (C.B-17/IcrHan®Hsd-Prkdc^scid) or Hsd:Athymic Nude-Foxn1^nu female mice (Envigo) were used for tumour implantation. […] When dosed twice daily, the time between the morning and evening doses was 8 h. Targeted irradiation of 2 Gy was delivered over 2 min daily over the first 5 days of treatment. Liposomal doxorubicin (Doxoves) was diluted in physiological saline and intravenously dosed at 2.5 or 5 mg kg^−1 once per week. Olaparib was formulated in 10% DMSO/30% Kleptose and orally dosed at 100 mg kg^−1 once daily. […] Statistical significance was evaluated using a one-tailed t-test. […]
Tumours were measured (length x width) by bilateral Vernier calliper measurements and tumour volume calculated using Mousetrap software. […]
HPMC/T. Tumour growth inhibition from start of treatment was assessed by co mparison of the mean change in tumour volume for the control and treated groups, using the Mousetrap application and represented as tumour growth inhibition (TGI). Statistical significance was evaluated using a one-tailed t-test. […]
as §6, with “Acetonitrile (100 µL) was added with the internal standard, followed by centrifugation at 3000 rpm for 10 minutes.” left out

HBCx-17 TNBC PDX = test: PDX efficacy study; format: in vivo, mice; conditions: olaparib 100 mg kg−1 qd single agent
Method: as §1, §2
treatment groups when mean tumour volume reached ~0.2 cm 3.

[1] = tested on: FaDu and A549 ATM KO cells; test: Colony formation assay, olaparib, ATM KO versus WT isogenic pairs; format: cell-based, human; conditions: olaparib single agent
Method: (§9) Graphs represent percentage viable cells ± SD following 7 days' treatment relative to DMSO vehicle-treated controls from one representative experiment of at least three independent experiments. […] Mean pGI50 (-log [GI50]) ± SEM, geometric mean GI50, number of experimental repeats (n) and 95% confidence interval are described. C) Colony formation assay was performed on FaDu and A549 ATM KO and WT cells treated with increasing concentrations of olaparib. Graphs represent percentage surviving fraction of colonies ± SD following 10- 14 days' treatment relative to DMSO vehicle-treated control from one representative experiment of three independent experiments. […] Optimized image algorithms were used to evaluate phenotypic response s using nuclear staining with Hoechst (cell cycle, micronuclei, nuclear fragmentation ), as well as to quantify the response of DNA damage response markers (foci numbers and total signal […] SDS-PAGE and Western blotting of samples Protein lysates were generated by scraping cells in radioimmunoprecipitation assay […] and protease and phosphatase inhibitor tablets (Roche) following compound treatments at indicated time points. Protein concentration was determined using the BCA protein assay kit (ThermoFisher). Proteins were separated by SDS -PAGE on NuPAGE® 4-12% […] membranes using the iBlot ® dry blotting system (ThermoFisher). […]

FaDu ATM KO cells = test: Clonogenic survival (colony formation assay); format: cell-based; conditions: Homo sapiens
Method: as §9

O=C(c1cc(Cc2n[nH]c(=O)c3ccccc23)ccc1F)N1CCN(C(=O)C2CC2)CC1 [olaparib]
TGI (OV2022 ovarian PDX): 65%
sensitivity of the model to olaparib (CTG-0828 NSCLC PDX): insensitive
sensitivity of the model to olaparib (CTG-0149 H&N PDX): insensitive
TGI (CTG-703 ovarian PDX): 100%
TGI (FaDu ATM KO xenografts): 50%
tumour regression (HBCx-17 TNBC PDX): 42%
tumours regressed on day 70 (last day of dosing) (HBCx-17 TNBC PDX): four tumours out of nine
tumours regressed on day 70 (last day of dosing) (HBCx-17 TNBC PDX; listed as Olaparib): 4/9
greater sensitivity of ATM KO cells compared with isogenic WT cells [1]: > 10 fold
IC50 (FaDu ATM KO cells): ~100 nM
